The results in this text go back to PMC11459959, “Discovery of new acetamide derivatives of 5-indole-1,3,4-oxadiazol-2-thiol as inhibitors of HIV-1 Tat-mediated viral transcription” (Antimicrobial Agents and Chemotherapy, 2024).

Read-outs that look alike come from different tables or passages of the source.

Data set [1] relates to general cellular transcription/translation (R-Luc). In words: Dual-reporter assay, R-Luc in bl-DTR cells. Type of data set: cell-based. Particulars: doxycycline, 24 h. The protocol: (§1) Fig 1 (A) (Top panel) Schematic representation of the primary compound screening using a dual-reporter system. […] (B). […] (Top graphs) bl-DTR cells (1 × 10^4) were treated with twofold serial dilutions of each compound before doxycycline (Dox) addition (final concentration, 50 ng/mL). After 24 h of treatment, the activities of firefly luciferase (F-Luc, red line) and Renilla luciferase (R-Luc, blue line) were determined using the Dual-Glo Luciferase assay system. (Bottom graphs) TZM-bl cells were treated with each indicated compound and subsequently infected with the HIV-1NL4-3 strain at a multiplicity of infection (MOI) of 1. At 48 h after infection, the viral infectivity (purple line) and cell viability (green line) were determined using the Bright-Glo luciferase assay kit and the PrestoBlue Cell Viability Reagent, respectively. […] (C). […] The targeted moieties for the SAR study are marked with dotted-circle lines.
(§2) The Tzm-bl-derived dual Tat reporter; TZM-bl/Tat/Rluc (bl-DTR) cells were established from TZM-bl cells using two Dox-inducible lentiviral expression cassettes cloned with Flag-tagged Tat86 and the R-Luc gene, as described in our previous study ([11]). TZM-bl, A3.01, J1.1, and J-Lat 6.3 cells as well as the HIV-1 molecular clone pNL4-3, pNL(AD8), ARV-resistant HIV-1 strains, and HIV-1NL43-IRES-eGFP (pBR43IeG-nef^+, gifted by Dr. Frank Kirchhoff) ([52]) were provided by the National Institute of Health HIV Reagent Program (NIH, Bethesda, MD, USA). HeLa (CCL-2) and 293T (CRL-3216) cell lines were purchased from the American Type Culture Collection (ATCC, Manassas, VA, USA). The bl-DTR, TZM-bl, HeLa, and 293T cells were cultured in Dulbecco’s modified Eagle’s medium supplemented with 1% penicillin–streptomycin and 10% (vol/vol) heat-inactivated fetal bovine serum (all from Gibco-BRL, Gaithersburg, MD, USA), and 1 µg/mL of puromycin and 200 µg/mL of zeocin were additionally supplemented for the bl-DTR cells. PBMCs were purchased from AllCells (Alameda, CA, USA) and cultured as previously described ([12]). The information on ARV-resistant HIV-1 strains was described in previous reports as follows: NNRTI-resistant 12241 and 12243 ([53]); NRTI-resistant 7396, 7406, and 7407 ([54]); INSTI-resistant 11847 and 11849 ([55], [56]); and PI-resistant 11800 and 11803 ([57]). Each molecular HIV-1 clone was transfected to 293T cells, as previously described ([58]), to obtain infectious HIV-1 particles. Virus-containing cell culture supernatants were collected 3 days after transfection, and filtered through a 0.45-µm membrane filter (Millipore Sigma, Burlington, MA, USA) to remove cell debris. The viral titration was performed as described previously ([59]) with some minor modifications. In brief, 1 × 10^4 TZM-bl cells seeded in 96-well plates were infected with 200 µL of virus-containing medium diluted serially twofold. The incubation was for 2 days and the experiment was performed in triplicate; the infection time minimized the virus spread ([59]). The titration of the infectious viral particles was performed with a ß-Gal staining assay using the ßeta-Galactosidase Staining Kit (Mirus Bio, Madison, WI, USA) following the manufacturer’s protocols. In brief, the infected cells were washed with phosphate-buffered saline (PBS) and fixed using a Cell Fixative Working solution. The cells were washed with PBS and stained using the Cell Staining Working Solution containing X-gal. The infected blue-colored cells were counted under a microscope (100× magnification). The infectious virus titer was determined as a mean value of blue-colored cells count × dilution factor and used for determining the multiplicity of infection (MOI) in each infection experiment.
In general terms: In a reporter assay the amount or activity of a reporter protein is the signal.

The subject of the next data set is TZM-bl cells. In words: Cell viability of TZM-bl cells (PrestoBlue). Type of data set: cell-based.
Data set [2] deals with HIV-1NL4-3. In words: HIV-1 infectivity in TZM-bl cells (F-Luc). Particulars: for EC50: read-out: EC50. The data set is classed as cell-based.
The subject of data set [3] is HIV-1NL4-3. In words: Time-of-addition assay in TZM-bl cells. Type of data set: cell-based. The conditions noted are these: HIV-1NL4-3 MOI 1, 9 and 13 1.5 μM, T-20 1 µM, triptolide 5 nM, ARVs 1 µM, F-Luc at 54 h. As to the method: Fig 5 (A) Time-of-addition assay. […] Subsequently, the cells were treated with the compounds at the indicated time points (0, 1, 2, 4, 6, 8, 10, 12, 24, 30, 36, 42, and 48 h) after HIV-1 infection. The final concentrations of compounds are described in Materials and Methods. Viral activity according to the timing of drug addition was measured as F-Luc activity at 54 h after infection. The relative activities are represented as the mean ± SD (n = 3) compared with the activity observed 54 h post-infection. The relative time frames associated with each HIV-1 infection step are defined based on the time frame of susceptibility to the drug that blocks that particular infection step. […] At 16 h after infection, the viral reverse transcription (RT) product (viral cDNA) level was determined by quantitative real-time PCR (RT-qPCR) using gag and 18S rRNA primer sets and represented as the mean ± SD (n = 3) normalized against the amount of the 18S rRNA compared with the DMSO control. **P < 0.01 compared with the vehicle (DMSO). (C) An in vitro integrase (IN) assay was performed with 10 µM of the indicated compounds following the manufacturer’s protocol. **P < 0.01 compared with vehicle (DMSO). (D) A3.01 cells were infected with HIV-1 upon treatment with the indicated compounds (5 µM) and ARVs (EFV and DTG) as the experimental controls. At 40 h after infection, cellular chromosomal DNA was purified, and the integrated proviral DNA was detected through nested Alu-PCR amplification.
A time-of-addition assay was performed as previously described ([25]) with minor modifications. […] Reference drug and test compounds were subsequently added at the indicated time (0, 1, 2, 4, 6, 8, 10, 12, 24, 30, 36, 42, and 48 h after infection). Final concentrations were as follows: compounds 9 and 13 (1.5 μM), T-20 (1 µM), Triptolide (5 nM), and ARVs (AZT, EFV, DTG, RAL) (1 µM). The viral activity according to the timing of drug addition was measured using a Bright Glo luciferase assay kit (Promega). Virus activity curves present a % activity relative to the activity observed at 54 h after infection, and the data are presented as the mean ± standard deviation (SD) (n = 3). The relative time frame associated with each HIV-1 infection step was defined based on the sensitivity to each drug that blocks a particular infection step.

In data set [4] the test system is INSTI-resistant HIV-1 strain 11849. In words: microbe, parasite or virus in culture. Type of data set: cell-based. Particulars: Human immunodeficiency virus 1, TZM-bl.
The subject of data set [5] is INSTI-resistant HIV-1 strain 11847. In words: microbe, parasite or virus in culture. The data set is classed as cell-based. Particulars: Human immunodeficiency virus 1, TZM-bl.
Data set [6] deals with Tat-mediated LTR transcription. In words: Dual-reporter assay, F-Luc (Tat-mediated LTR transcription) in bl-DTR cells. The data set is classed as cell-based, HIV-1. The conditions noted are these: bl-DTR cells, doxycycline 50 ng/mL, 24 h; mean ± SD; read-out: IC50 of F-Luc (Tat). The protocol:
as §1, §2

Consider `Cc1[nH]c2ccc(-c3nnc(SC(C)C(=O)N4CCCC4)n3CCc3ccccc3)cc2c1C` (centres unmarked) [Compound 32, 2-((5-(2,3-Dimethyl-1H-indol-5-yl)-4-phenethyl-4H-1,2,4-triazol-3-yl)thio)-1-(pyrrolidin-1-yl)propan-1-one], for which the “Relative R-Luc activity at IC50 of F-Luc” value in data set [1] is reported as 90. This compound displayed a CC50 in the data set on TZM-bl cells (human, 48 h) of 63.20 ± 2.65 µM.

As for `Cc1nnc(C(=O)NC(C)(C)c2nc(C(=O)NCc3ccc(F)cc3)c(O)c(=O)n2C)o1` [RAL, raltegravir, reference compound], the EC50 is less than 0.001 µM in the data set on HIV-1NL4-3 [2] (Human immunodeficiency virus 1, TZM-bl, Table S1, WT virus, TZM-bl); 14.3 ± 2.59 µM in data set [4]; 4.99 ± 0.2 µM in data set [5]. In the data set with HIV-1NL4-3 [3], the “time of administration after infection at which effectiveness began to decrease / was lost” value was determined as 10 h.

On to “5-(2,3-Dimethyl-1H-indol-5-yl)-4-phenethyl-4H-1,2,4-triazole-3-thiol [Compound 29]”, for which, in data set [6], the IC50 was found to be 0.43 ± 0.03 µM. For the same compound, in the data set on HIV-1NL4-3 [2] (TZM-bl cells), the “SI (CC50/EC50)” value came out at 164.33. The EC50 with HIV-1NL4-3 [2] (TZM-bl cells infected with HIV-1NL4-3 at MOI 1, 48 h, F-Luc, mean ± SD) was found to be 0.39 ± 0.03 µM. Further, in data set [1], the “Relative R-Luc activity at IC50 of F-Luc” value is reported as 90. The CC50 with TZM-bl cells (TZM-bl cells, absence of HIV-1 infection, mean ± SD, read-out: CC50) is 64.1 ± 6.31 µM.

What is called CC50 is the concentration at which the toxic effect on the cells reaches its halfway point. By EC50 is commonly meant the midpoint of the concentration-response curve. The term IC50 denotes the point on the concentration scale where inhibition reaches its midpoint.
